Data taken from patent publication US6407067B1, “Salts of thrombin inhibitors” (BASF Aktiengesellschaft, priority 1999, dated 2002).

Key:
[1] = Crystallinity assessed by Debye-Scherrer photographs; format: physicochemical; settings: isolated solid
Excerpt: The crystallinity of the samples has been assessed on the basis of Debye-Scherrer photographs.

[2] = Stability test (storage at 70° C., 1 bar, content by HPLC); format: physicochemical
Description: The thermal decomposition of the compounds of the general formula I and II has been investigated in a stability test. […]
The substances were stored at 70° C., 1 bar. Measurements were in HPLC % areas

| Compound | Debye-Scherrer photograph (crystallinity) [1] | Stability on storage in an open vessel (relative content by HPLC) ([2]; 0 days) [HPLC % areas] | Stability on storage in an open vessel (relative content by HPLC) ([2]; 7 days) | Stability on storage in an open vessel (relative content by HPLC) ([2]; 14 days) |
| --- | --- | --- | --- | --- |
| CC1=CC(=O)NS(=O)(=O)O1.N=C(N)c1ccc(CNC(=O)[C@@H]2C=CCN2C(=O)[C@@H](CC2CCCCC2)NCC(=O)O)cn1 [Acesulfame salt, N-((Hydroxycarbonyl)methylene)-(R)-cyclohexylalanyl-(S)-3,4-dehydroproline 6-Amidino-3-picolinylamide Acesulfamate] | crystalline | 100 | 96,7 HPLC % areas | 88,4 HPLC % areas |
| CC(=O)O.N=C(N)c1ccc(CNC(=O)[C@@H]2C=CCN2C(=O)[C@@H](CC2CCCCC2)NCC(=O)O)cn1 [Acetate, N-((Hydroxycarbonyl)methylene)-(R)-cyclohexylalanyl-(S)-3,4-d ehydroproline 6-Amidino-3-picolinylamide Acetate] | amorphous | 100 | 92.6 HPLC % areas | 87.2 HPLC % areas |
| N=C(N)c1ccc(CNC(=O)[C@@H]2C=CCN2C(=O)[C@@H](CC2CCCCC2)NCC(=O)O)cn1.O=C(O)/C=C/C(=O)O [Fumarate, N-((hydroxycarbonyl)methylene)-(R)-cyclohexylalanyl-(S)-3,4-dehydroproline 6-Amidino-3-picolinylamide Fumarate] | amorphous | 100 | 87.9 HPLC % areas | 87.1 HPLC % areas |
| N=C(N)c1ccc(CNC(=O)[C@@H]2C=CCN2C(=O)[C@@H](CC2CCCCC2)NCC(=O)O)cn1.O=C1NS(=O)(=O)c2ccccc21 [Saccharin salt, N-((Hydroxycarbonyl)methylene)-(R)-cyclohexylalanyl-(S)-3,4-dehydroproline 6-Amidino-3-picolinylamide Saccharinate] | crystalline | 100 | 100 HPLC % areas | 101 HPLC % areas |
| N-((Hydroxycarbonyl)methylene)-(R)-cyclohexylalanyl-(S)-3,4-dehydroproline 6-Amidino-3-picolinylamide (Betaine) [1st Example] | amorphous |  |  |  |
